Common to all, as to assay type: cell-based
Test [1] has as its system MCF7 cells (ATCC #HTB-22). Description: Cellular growth inhibition assay, MCF7 cells purchased from ATCC. The following applies: Homo sapiens, MCF7, 144 h, Table 8-A; MCF7 cells purchased from ATCC; six days; CellTiter-Glo; read-out: GI50. The protocol:
Exemplary compounds were tested for the ability to inhibit the proliferation of MCF7 cells.
MCF7 cells (ATCC #HTB-22 or ECACC #86012803) were cultured in RPMI 1640 medium supplemented with 10% heat-inactivated fetal bovine serum, 1% pen-strep, and 0.2 U/ml insulin. Cells were seeded in 25 μL of RPMI 1640 medium supplemented with 10% heat-inactivated fetal bovine serum, 1% pen-strep, 0.2 U/ml insulin in poly-D-lysine treated, black clear-bottom 384-well plates at 225 cells/well for MCF7 cells purchased from ECACC or 1,500 cells/well for MCF7 cells purchased from ATCC. Following seeding, plates were spun at 300×g for 30 seconds and cultured at 37° C. with 5% CO2 in a humidified tissue culture incubator.
At 24 hours after seeding, compounds were titrated in 100% DMSO and diluted in RPMI 1640 medium supplemented with 10% heat-inactivate fetal bovine serum, 1% pen-strep, and 0.2 U/ml insulin. A 25 μL aliquot of the compound/media mixture was added to cells, bringing the total volume in each well to 50 μL. An equal volume of DMSO without compound was used as a negative control. After treatment, plates were spun at 300×g for 30 seconds, then cultured at 37° C. with 5% CO2 for six days in a humidified tissue culture incubator.
On Day 6 of treatment, cell viability was quantified with CellTiter-Glo 2.0 reagent (Promega). Plates were equilibrated to room temperature for 30 minutes, then 25 μL of CellTiter-Glo 2.0 reagent was added to cells, bringing the total volume in each well to 75 μL. After reagent was added, plates were mixed on a shaker for two minutes at 500 rpm and then incubated at room temperature for 10 minutes. Following incubation, plates were spun at 3,000×g for 30 seconds, sealed with an optical adhesive cover, and luminescence readings were measured with an EnVision Plate Reader.
Data was normalized to 0 luminescence for baseline. A four-parameter, non-linear regression curve fit was applied to dose-response data in GraphPad Prism data analysis software to determine the half maximal growth inhibitory concentration (GI50) for each compound.
A general note: ATP-based viability assays read luminescence as a measure of living cells.

In test [2] the test system is T-Rex 293 cells having increased expression of estrogen receptor alpha protein. As to the kind of experiment: Cellular growth inhibition assay, T-Rex 293 cells, (+) doxycycline. The following applies: T-REx-293, 72 h, 72 hours. The essentials:
(§1)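 Growth of a doxycycline-inducible ERα T-Rex 293 clone, induced or not with 3 ng/mL doxycycline, was followed for 72 h with test compound in hormone-depleted medium. CellTiter-Glo luminescence gave GI50.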

For test [3], the system named is T-Rex 293 cells lacking increased expression of estrogen receptor alpha protein. Description: Cellular growth inhibition assay, T-Rex 293 cells, (−) doxycycline. The following applies: T-REx-293, 72 h, 72 hours. The essentials:
as §1

Setting [4] is: T-Rex 293 cells with doxycycline-induced ERα expression, CellTiter-Glo 2.0, read-out: (+) Dox TRex ERa (GI50).
Setting [5] is: T-Rex 293 cells without doxycycline, CellTiter-Glo 2.0, read-out: (−) Dox TRex ERa (GI50).

Structures are written as SMILES. Where two headings read alike, the source gives them in different places.

Take `Cc1sc2c(c1C)C(c1ccc(OC3CC4(CCN(CCOc5ccc(C(=O)c6c(-c7ccc(O)cc7)sc7cc(O)ccc67)cc5)CC4)C3)cc1)=N[C@@H](Cc1ncco1)c1nnc(C)n1-2` [I-10, (S)-(6-hydroxy-2-(4-hydroxyphenyl)benzo[b]thiophen-3-yl)(4-(2-(2-(4-(2,3,9-trimethyl-6-(oxazol-2-ylmethyl)-6H-thieno[3,2-f][1,2,4]triazolo[4,3-a][1,4]diazepin-4-yl)phenoxy)-7-azaspiro[3.5]nonan-7-yl)ethoxy)phenyl)methanone]: the GI50 in test [1], in test [2] (setting [4]) and in test [3] (setting [5]) was less than 50 nM in each case.
Turning to `Cn1cc(-c2cc(C(C)(C)O)ccc2Oc2ccc(N3CC(CC4CCN(CCOc5ccc(C(=O)c6c(-c7ccc(O)cc7)sc7cc(O)ccc67)cc5)CC4)C3)cc2)c2cc[nH]c2c1=O` [I-11, 4-(2-(4-(3-((1-(2-(4-(6-hydroxy-2-(4-hydroxyphenyl)benzo[b]thiophene-3-carbonyl)phenoxy)ethyl)piperidin-4-yl)methyl)azetidin-1-yl)phenoxy)-5-(2-hydroxypropan-2-yl)phenyl)-6-methyl-1,6-dihydro-7H-pyrrolo[2,3-c]pyridin-7-one], the 50% growth inhibitory concentration (GI50) in test [1], in test [2] (setting [4]) and in test [3] (setting [5]) was less than 50 nM throughout.
Take `Cc1sc2c(c1C)C(c1ccc(N3CCN(CC4CCN(c5ccc([C@@H]6c7ccc(O)cc7CC[C@@H]6c6ccccc6)cc5)CC4)CC3)cc1)=N[C@@H](Cc1ncco1)c1nnc(C)n1-2` [I-12, (5R,6S)-6-phenyl-5-(4-(4-((4-(4-((S)-2,3,9-trimethyl-6-(oxazol-2-ylmethyl)-6H-thieno[3,2-f][1,2,4]triazolo[4,3-a][1,4]diazepin-4-yl)phenyl)piperazin-1-yl)methyl)piperidin-1-yl)phenyl)-5,6,7,8-tetrahydronaphthalen-2-ol]: the GI50 was less than 50 nM in test [1]; less than 50 nM in test [2] (Table 7-A, T-Rex 293 cells with doxycycline (increased ERα expression), CellTiter-Glo, read-out: (+) Dox GI50); 500 to 2500 nM in test [3] (Table 7-A, T-Rex 293 cells without doxycycline (lacking increased ERα expression), CellTiter-Glo, read-out: (−) Dox GI50).
In the case of `Cc1sc2c(c1C)C(c1ccc(OCCC3CCN(CCOc4ccc(C(=O)c5c(-c6ccc(O)cc6)sc6cc(O)ccc56)cc4)CC3)cc1)=N[C@@H](Cc1ncco1)c1nnc(C)n1-2` [I-13, (S)-(6-hydroxy-2-(4-hydroxyphenyl)benzo[b]thiophen-3-yl)(4-(2-(4-(2-(4-(2,3,9-trimethyl-6-(oxazol-2-ylmethyl)-6H-thieno[3,2-f][1,2,4]triazolo[4,3-a][1,4]diazepin-4-yl)phenoxy)ethyl)piperidin-1-yl)ethoxy)phenyl)methanone], the figures for the GI50 in test [1], in test [2] (setting [4]) and in test [3] (setting [5]) were less than 50 nM, less than 50 nM and 50 to 500 nM, respectively.
Consider `Cc1sc2c(c1C)C(c1ccc(OCCCCC3CCN(c4ccc(C(=O)c5c(-c6ccc(Br)cc6)sc6cc(O)ccc56)cc4)CC3)cc1)=N[C@@H](Cc1ncco1)c1nnc(C)n1-2` [I-14, (S)-(2-(4-bromophenyl)-6-hydroxybenzo[b]thiophen-3-yl)(4-(4-(4-(4-(2,3,9-trimethyl-6-(oxazol-2-ylmethyl)-6H-thieno[3,2-f][1,2,4]triazolo[4,3-a][1,4]diazepin-4-yl)phenoxy)butyl)piperidin-1-yl)phenyl)methanone], for which the 50% growth inhibitory concentration (GI50) in test [1] is 500 to 2500 nM; in test [2] (setting [4]), 50 to 500 nM; in test [3] (setting [5]), greater than 2500 nM.
The corresponding values for `Cc1sc2c(c1C)C(c1ccc(OCCC3CCN(c4ccc(C(=O)c5c(-c6ccc(O)cc6)sc6cc(O)ccc56)cc4)CC3)cc1)=N[C@@H](Cc1ncco1)c1nnc(C)n1-2` [I-15, (S)-(6-hydroxy-2-(4-hydroxyphenyl)benzo[b]thiophen-3-yl)(4-(4-(2-(4-(2,3,9-trimethyl-6-(oxazol-2-ylmethyl)-6H-thieno[3,2-f][1,2,4]triazolo[4,3-a][1,4]diazepin-4-yl)phenoxy)ethyl)piperidin-1-yl)phenyl)methanone] are less than 50 nM, less than 50 nM and less than 50 nM.
The corresponding values for `Cc1sc2c(c1C)C(c1ccc(Cl)cc1)=N[C@@H](CC(=O)NCCCCCCCOc1ccc(C(=O)c3c(-c4ccc(O)cc4)sc4cc(O)ccc34)cc1)c1nnc(C)n1-2` [I-16, (S)-2-(4-(4-chlorophenyl)-2,3,9-trimethyl-6H-thieno[3,2-f][1,2,4]triazolo[4,3-a][1,4]diazepin-6-yl)-N-(7-(4-(6-hydroxy-2-(4-hydroxyphenyl)benzo[b]thiophene-3-carbonyl)phenoxy)heptyl)acetamide] are 50 to 500 nM, greater than 2500 nM and greater than 2500 nM.
The corresponding values for `Cc1sc2c(c1C)C(c1ccc(Cl)cc1)=N[C@@H](CC(=O)NCCCCOCCOc1ccc(C(=O)c3c(-c4ccc(O)cc4)sc4cc(O)ccc34)cc1)c1nnc(C)n1-2` [I-17, (S)-2-(4-(4-chlorophenyl)-2,3,9-trimethyl-6H-thieno[3,2-f][1,2,4]triazolo[4,3-a][1,4]diazepin-6-yl)-N-(4-(2-(4-(6-hydroxy-2-(4-hydroxyphenyl)benzo[b]thiophene-3-carbonyl)phenoxy)ethoxy)butyl)acetamide] are 50 to 500 nM, 500 to 2500 nM and 500 to 2500 nM.
Consider `Cc1sc2c(c1C)C(c1ccc(CC3CC4(CCN(CCOc5ccc(C(=O)c6c(-c7ccc(O)cc7)sc7cc(O)ccc67)cc5)CC4)C3)cc1)=N[C@@H](C)c1nnc(C)n1-2` [I-19, (S)-(6-hydroxy-2-(4-hydroxyphenyl)benzo[b]thiophen-3-yl)(4-(2-(2-(4-(2,3,6,9-tetramethyl-6H-thieno[3,2-f][1,2,4]triazolo[4,3-a][1,4]diazepin-4-yl)benzyl)-7-azaspiro[3.5]nonan-7-yl)ethoxy)phenyl)methanone], for which the figures for the GI50 in test [1], in test [2] (setting [4]) and in test [3] (setting [5]) were less than 50 nM, less than 50 nM and 50 to 500 nM, respectively.
As for `Cc1sc2c(c1C)C(c1ccc(C#CC3CC4(CCN(CCOc5ccc(C(=O)c6c(-c7ccc(O)cc7)sc7cc(O)ccc67)cc5)CC4)C3)cc1)=N[C@@H](Cc1ncco1)c1nnc(C)n1-2` [I-20, (S)-(6-hydroxy-2-(4-hydroxyphenyl)benzo[b]thiophen-3-yl)(4-(2-(2-((4-(2,3,9-trimethyl-6-(oxazol-2-ylmethyl)-6H-thieno[3,2-f][1,2,4]triazolo[4,3-a][1,4]diazepin-4-yl)phenyl)ethynyl)-7-azaspiro[3.5]nonan-7-yl)ethoxy)phenyl) methanone], the concentration for 50% growth inhibition (GI50) in test [1], in test [2] (setting [4]) and in test [3] (setting [5]) was less than 50 nM throughout.
Regarding `Cc1sc2c(c1C)C(c1ccc(OCCCCC3CCN(c4ccc(C(=O)c5c(-c6ccc(O)cc6)sc6cc(O)ccc56)cc4)CC3)cc1)=N[C@@H](Cc1ncco1)c1nnc(C)n1-2` [I-21, (S)-(6-hydroxy-2-(4-hydroxyphenyl)benzo[b]thiophen-3-yl)(4-(4-(4-(4-(2,3,9-trimethyl-6-(oxazol-2-ylmethyl)-6H-thieno[3,2-f][1,2,4]triazolo[4,3-a][1,4]diazepin-4-yl)phenoxy)butyl)piperidin-1-yl)phenyl)methanone], the GI50 in test [1] is less than 50 nM; in test [2] (setting [4]), less than 50 nM; in test [3] (setting [5]) it was 50 to 500 nM.

As a reminder, the GI50 is the concentration at which growth is held to half of that of the control.

Values taken from patent US12558428B2, “Heterobifunctional compounds and their use in treating disease” (Halda Therapeutics OpCo, Inc., priority 2024, dated 2026).
